Active and inactive are the calls of the source. No cut-off for these calls is given here.
Assays:
AML12 [1] = assay: Effect on lipid accumulation in oleic and palmitic acid induced mouse AML12 cells assessed as decrease in triglyceride level at 3 to 30 uM; type: functional, cell-based; conditions: dose 3-30 µM
AML12 [2] = assay: Effect on lipid accumulation in oleic and palmitic acid induced mouse AML12 cells assessed as decrease in total cholesterol level at 3 to 30 uM; type: functional, cell-based; conditions: dose 3-30 µM
AML12 [3] = assay: Effect on lipid accumulation in oleic and palmitic acid induced mouse AML12 cells assessed as decrease in total cholesterol level; type: functional, cell-based; conditions: dose 3-30 µM
[4] = system: O=C(O)CC(O)(CCc1ccc(-c2ccccc2)cc1)C(=O)O; assay: Binding affinity to SLC13A5 (unknown origin) assessed as Km; conditions: Homo sapiens
AML12 [5] = assay: Effect on lipid accumulation in oleic and palmitic acid induced mouse AML12 cells assessed as decrease in triglyceride level; type: functional, cell-based; conditions: dose 3-30 µM

Chain of Na(+)/citrate cotransporter (Homo sapiens), Q86YT5 (Q86YT5 whole entry): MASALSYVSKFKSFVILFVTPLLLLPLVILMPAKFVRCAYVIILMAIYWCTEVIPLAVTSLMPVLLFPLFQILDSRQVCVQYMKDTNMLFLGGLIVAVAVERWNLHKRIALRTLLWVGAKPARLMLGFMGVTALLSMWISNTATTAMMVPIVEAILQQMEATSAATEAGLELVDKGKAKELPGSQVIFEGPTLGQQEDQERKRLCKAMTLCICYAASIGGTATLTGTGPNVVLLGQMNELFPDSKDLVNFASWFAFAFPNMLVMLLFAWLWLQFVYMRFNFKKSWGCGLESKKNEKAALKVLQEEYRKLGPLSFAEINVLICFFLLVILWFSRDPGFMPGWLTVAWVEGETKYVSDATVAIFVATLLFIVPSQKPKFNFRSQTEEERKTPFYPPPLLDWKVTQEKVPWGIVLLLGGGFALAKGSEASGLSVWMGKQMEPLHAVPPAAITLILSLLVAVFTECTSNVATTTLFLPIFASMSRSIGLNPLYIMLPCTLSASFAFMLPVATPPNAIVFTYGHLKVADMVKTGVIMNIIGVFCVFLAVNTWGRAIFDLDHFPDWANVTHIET

Molecule | Activity (AML12 [1]) | Activity (AML12 [2]) | Activity (AML12 [3]) | Km [4] [µM] | Activity (AML12 [5])
CC(C)(C)c1ccc(CC[C@@](O)(CC(=O)O)C(=O)O)cc1 | inactive | inactive |  |  | 
CCn1nccc1-c1ccc(CCC(O)(CC(=O)O)C(=O)O)cc1 (stereo unspecified) | inactive |  | Dose-Dependent Effect |  | 
Na(+)/citrate cotransporter (Homo sapiens), Q86YT5 |  |  |  | 0.19 | 
O=C(O)CC(O)(CCc1nc2ccccc2s1)C(=O)O (stereo unspecified) | inactive |  | Dose-Dependent Effect |  | 
O=C(O)CC(O)(CCc1ccc2ccccc2c1)C(=O)O (stereo unspecified) |  |  | Dose-Dependent Effect |  | Dose-Dependent Effect
COc1ccccc1-c1ccc(CCC(O)(CC(=O)O)C(=O)O)cc1 (stereo unspecified) |  |  | Dose-Dependent Effect |  | Dose-Dependent Effect

— ChEMBL document CHEMBL5543131, “Discovery of Highly Potent Solute Carrier 13 Member 5 (SLC13A5) Inhibitors for the Treatment of Hyperlipidemia” (J Med Chem, 2024)
